# System: Melanoderm tissue equivalent model MEL-300 (MatTek) containing melanocytes obtained from dark skin individuals
# Test: Melanoderm tissue equivalent melanin content (inhibition of melanogenesis)
# Type: cell-based
# Conditions: Melanocyte, 336 h, total melanin content vs DMSO vehicle, 5 μM in maintenance medium, 14 days
# Description: Melanoderm tissue equivalent model MEL-300 (MatTek: Ashland, Mass.) containing melanocytes obtained from dark skin individuals were cultured as per supplier instructions. Components were added to the maintenance medium phase (no topical treatments) at a final concentration of 5 μM for 14 days at which time the experiment was terminated and the tissues assessed for melanin content. Medium and treatments were changed three times per week. DMSO was utilized as the vehicle control and all treatments were performed at least in duplicate.
# For quantification of total melanin, each Melanoderm was placed into an individual Eppendorf tube (2 mL) into which 250 μL of Solvable™ tissue solubilizer (Packard Bioscience Co., Cat#6NE9100) was added. Each tube was vortexed and incubated at 60° C. for 18 hours. Each sample was then centrifuged (5-minutes at 13,000 RPMs) to remove any particulates. 100 or 200 μL of supernatant were transferred to a 96 well microtiter plate and the absorbance read at 490 nm. Total melanin content was calculated from a standard curve using synthetic melanin (Sigma Cat# M8631). Data was analyzed for significance using the t-test in Microsoft Excel to generate p-values (p-values less than 0.01 represent 99% confidence, p values of 0.05 represent 95% confidence both of which are statistically significant).
row,SMILES,inhibition at 5 µM [%]
1,"CCc1ccccc1OCc1cccc(CN(CC)CC)c1 [5c, N-(3-((2-ethylphenoxy)methyl)benzyl)-N-ethylethanamine]",30.7
2,"CC(C)NCc1cccc(COc2cccc3ccccc23)c1 [5j, N-(3-((naphthalen-1-yloxy)methyl)benzyl)propan-2-amine]",26.5
3,CCc1ccc(OCc2cccc(CN(C)C)c2)cc1 [5k],-0.6
4,"CCc1ccccc1OCc1cccc(CNC)c1 [5q, (3-((2-ethylphenoxy)methyl)phenyl)-N-methylmethanamine]",42.3
5,"CCN(CC)Cc1cccc(COc2cccc3ccccc23)c1 [5h, N-(3-((naphthalen-1-yloxy)methyl)benzyl)-N-ethylethanamine]",33.5
6,"CCNCc1cccc(COc2ccccc2CC)c1 [5r, N-(3-((2-ethylphenoxy)methyl)benzyl)ethanamine]",33.9
7,"CCN(CC)Cc1cccc(COc2ccccc2)c1 [5a, N-(3-(phenoxymethyl)benzyl)-N-ethylethanamine]",14.4
8,"COc1ccccc1OCc1cccc(CNC(C)C)c1 [5e, N-(3-((2-methoxyphenoxy)methyl)benzyl)propan-2-amine]",14.7
9,"NCc1cccc(COc2cccc3ccccc23)c1 [5s, (3-((naphthalen-1-yloxy)methyl)phenyl)methanamine]",4
10,"CCN(CC)Cc1cccc(COc2ccccc2C)c1 [5b, N-(3-((o-tolyloxy)methyl)benzyl)-N-ethylethanamine]",27.1
11,"CCc1ccccc1OCc1cccc(CN(C)C)c1 [5m, (3-((2-ethylphenoxy)methyl)phenyl)-N,N-dimethylmethanamine]",31.6
12,"CCN(C)Cc1cccc(COc2ccccc2OC)c1 [5f, N-(3-((2-methoxyphenoxy)methyl)benzyl)-N-methylethanamine]",20.8
13,"CCN(CC)Cc1cccc(COc2ccccc2OC)c1 [5d, N-(3-((2-methoxyphenoxy)methyl)benzyl)-N-ethylethanamine]",9.3
14,"CCNCc1cccc(COc2cccc3ccccc23)c1 [5u, N-((3-((naphthalen-1-yloxy)methyl)phenyl)methyl)ethanamine]",42.5
15,"CN(C)Cc1cccc(COc2cccc3ccccc23)c1 [5i, N,N-dimethyl(3-((naphthalen-1-yloxy)methyl)phenyl)methanamine]",25.3
16,"CCN(CC)Cc1cccc(COc2ccccc2C(C)C)c1 [5g, N-(3-((2-isopropylphenoxy)methyl)benzyl)-N-ethylethanamine]",29.9
17,"CNCc1cccc(COc2cccc3ccccc23)c1 [5t, N-methyl(3-((naphthalen-1-yloxy)methyl)phenyl)methanamine]",27.1

# From patent publication US8425885B2, “Substituted 3-(phenoxymethyl) benzyl amines and personal care compositions” (Conopco, Inc., priority 2009, dated 2013)
